Structures can show the parent of a compound that is named as a salt.
What was measured:
Type in all cases: cell-based
Settings in all cases: β-lactam (CXA-101/Ceftolozane or ceftazidime) fixed at 4 μg/mL; compared with Avibactam (comparator compound CCC)
[1] = tested on: bacterial strains that express KPC β-lactamase (isogenic E. coli strain KPC-2); test: Synergy MIC (sMIC) assay, KPC strain
Description: (§1) A set of β-lactamase expressing isogenic E. coli strains was constructed by cloning a β-lactamase gene into a customized derivative of pBR322 (GenBank Accession Number J01749) and transforming the engineered plasmids into E. coli. The NdeI restriction site within the plasmid backbone of pBR322 was removed to generate pBR322 ΔNdeI. The pBR322 ΔNdeI vector itself, minus the blaTEM-1 gene, was amplified using two primers: (1) pBR-Pbla 5′-[…]-3, SEQ ID 1, a primer with an engineered NdeI restriction site at the 3′ end of the blaTEM-1 promoter and (2) pBR-vec-1 5′-[…]-3′, SEQ ID 2, a primer with an engineered BamHI restriction site at the 3′ end of the blaTEM-1 open reading frame. The chloramphenicol resistance gene, cat, was generated by PCR amplification from pKD3 (GenBank Accession Number AY048742) using primers with an engineered NdeI restriction site at the 5′ end (Pbla-cat 5′-[…]-3′, SEQ ID 3) and an engineered BamHI restriction site at the 3′ end (Vec-1-cat 5′-[…]-3′, SEQ ID 4) of the resistance gene. The two PCR products, pBR322 ΔNdeI and cat were ligated together generating pBR-CBST (pBR322 ΔNdeI ΔTEM-1::cat Seq. ID 5) which retains both the pBR322 tetracycline resistance cassette, tetA, and the plasmid origin of replication but the blaTEM-1 gene was replaced by the cat gene.
(§2) Using this engineering strategy a number of plasmids producing β-lactamase genes from different classes (see below) were generated using synthetic genes with an engineered NdeI restriction site at the 5′ end and BamHI restriction site at the 3′ end of each gene (GenScript). Both the synthetic β-lactamase genes and cat gene were ligated into the NdeI/BamHI sites of the pBR322 ΔNdeI PCR product and transformed into electrocompetent E. coli ElectroMax DH10B (Invitrogen/Life Technologies). E. coli DH10B harboring the recombinant plasmids were selected on LB agar (supplemented with 25 μg/mL tetracycline) and single isolated colonies were then inoculated into 5 mL LB media (supplemented with 25 μg/mL tetracycline), and incubated at 37° C. with aeration (250 rpm) for 18 hrs. The cultures were frozen back at −80° C. in 20% glycerol. The DNA sequence of the cloned β-lactamase genes was confirmed. The β-lactamase gene expression in the recombinant E. coli strains was driven by the blaTEM-1 promoter in the pBR-CBST plasmid and was characterized by MIC profiling of the E. coli recombinant strains against comparator β-lactam/BLI combinations in broth microdilution assay.
(§3) The synergy MIC (sMIC) assay determines the concentration of the BLI required to potentiate the activity of a fixed concentration of a β-lactam antibiotic against β-lactamase producing bacterial strains. The experimental protocol was performed according to Clinical and Laboratory Standards Institute (CLSI) guidelines with modifications as described below (CLSI guidelines can be derived from the CLSI document M07-A9 published in January 2012: “Methods for Dilution Antimicrobial Susceptibility Tests for Bacteria That Grow Aerobically; Approved Standard-Ninth Edition”). The assay is set-up by serially diluting the BLI across 11 of the 12 wells in each row of a 96-well broth microdilution assay plate, adding the β-lactam at a fixed concentration to all wells in the assay plate, inoculating the assay plate with bacterial strains, and determining the lowest concentration of BLI required to inhibit overnight bacterial growth.
(§4) To prepare for MIC testing, frozen glycerol stocks of laboratory engineered, isogenic E. coli strains, which contain cloned β-lactamase expressing plasmids were used to streak for isolated colonies on rich, selective LB agar supplemented with 25 μg/mL tetracycline to maintain the plasmid. All strains were incubated at 37° C. for 18-24 hrs.
(§5) On the day of testing, primary cultures were started by scraping off 5-10 colonies from the tetracycline supplemented LB plates containing engineered strains. […]

[2] = tested on: bacterial strains that express OXA-15 β-lactamase (isogenic E. coli strain); test: Synergy MIC (sMIC) assay, OXA-15 strain
Description: as §1, §2, §3, §4, §5

[3] = tested on: bacterial strains that express SHV-12 β-lactamase (isogenic E. coli strain); test: Synergy MIC (sMIC) assay, SHV-12 strain
Description: as §1, §2, §3, §4, §5

[4] = tested on: bacterial strains that express P99 β-lactamase (isogenic E. coli strain P99 AmpC); test: Synergy MIC (sMIC) assay, P99 AmpC strain
Description: as §1, §2, §3, §4, §5

[5] = tested on: bacterial strains that express CTX-M-15 β-lactamase (isogenic E. coli strain); test: Synergy MIC (sMIC) assay, CTX-M-15 strain
Description: as §1, with “cat gene. […]” for “cat gene.”

SMILES	activity against bacterial strains that express KPC β-lactamase relative to Avibactam (sMIC) [1]	activity against bacterial strains that express OXA-15 β-lactamase relative to Avibactam (sMIC) [2]	activity against bacterial strains that express SHV-12 β-lactamase relative to Avibactam (sMIC) [3]	activity against bacterial strains that express P99 β-lactamase relative to Avibactam (sMIC) [4]	activity against bacterial strains that express CTX-M-15 β-lactamase relative to Avibactam (sMIC) [5]
N#Cc1cc([C@@H]2CC[C@@H]3CN2C(=O)N3OS(=O)(=O)O)no1 [Compound 102, (2S,5R)-2-(5-cyanoisoxazol-3-yl)-7-oxo-1,6-diazabicyclo[3.2.1]octan-6-yl hydrogen sulfate]	as active or more active than Avibactam				
CN1CCN(c2nnc([C@@H]3CC[C@@H]4CN3C(=O)N4OS(=O)(=O)O)o2)CC1 [Compound 205, (2S,5R)-2-(5-(4-methylpiperazin-1-yl)-1,3,4-oxadiazol-2-yl)-7-oxo-1,6-diazabicyclo[3.2.1]octan-6-yl hydrogen sulfate]	as active or more active than Avibactam	more active than Avibactam			
NC(=O)c1noc([C@@H]2CC[C@@H]3CN2C(=O)N3OS(=O)(=O)O)n1 [Compound 401, (2S,5R)-2-(3-carbamoyl-1,2,4-oxadiazol-5-yl)-7-oxo-1,6-diazabicyclo[3.2.1]octan-6-yl hydrogen sulfate]	as active or more active than Avibactam		as active as Avibactam		
Cc1nnc([C@@H]2CC[C@@H]3CN2C(=O)N3OS(=O)(=O)O)o1 [Compound 200, (2S,5R)-2-(5-methyl-1,3,4-oxadiazol-2-yl)-7-oxo-1,6-diazabicyclo[3.2.1]octan-6-yl hydrogen sulfate]	as active or more active than Avibactam	more active than Avibactam	as active as Avibactam		
CCOC(=O)c1noc([C@@H]2CC[C@@H]3CN2C(=O)N3OS(=O)(=O)O)n1 [Compound 402, ethyl 5-((2S,5R)-7-oxo-6-(sulfooxy)-1,6-diazabicyclo[3.2.1]octan-2-yl)-1,2,4-oxadiazole-3-carboxylate]			as active as Avibactam		
NC(=O)c1cc([C@@H]2CC[C@@H]3CN2C(=O)N3OS(=O)(=O)O)no1 [Compound 103, (2S,5R)-2-(5-carbamoylisoxazol-3-yl)-7-oxo-1,6-diazabicyclo[3.2.1]octan-6-yl hydrogen sulfate]	as active or more active than Avibactam		as active as Avibactam		
CCc1nnc([C@@H]2CC[C@@H]3CN2C(=O)N3OS(=O)(=O)O)o1 [Compound 201, (2S,5R)-2-(5-ethyl-1,3,4-oxadiazol-2-yl)-7-oxo-1,6-diazabicyclo[3.2.1]octan-6-yl hydrogen sulfate]	as active or more active than Avibactam	more active than Avibactam			
O=C1N2C[C@@H](CC[C@H]2c2ncns2)N1OS(=O)(=O)O [Compound 500, (2S,5R)-7-oxo-2-(1,2,4-thiadiazol-5-yl)-1,6-diazabicyclo[3.2.1]octan-6-yl hydrogen sulfate]				as active as Avibactam	
O=C1N2C[C@@H](CC[C@H]2c2nnc(C3CNCCO3)o2)N1OS(=O)(=O)O (stereo partly drawn) [Compound 206, (2S,5R)-2-(5-(morpholin-2-yl)-1,3,4-oxadiazol-2-yl)-7-oxo-1,6-diazabicyclo[3.2.1]octan-6-yl hydrogen sulfate]	as active or more active than Avibactam	more active than Avibactam		as active as Avibactam	
O=C1N2C[C@@H](CC[C@H]2c2ccon2)N1OS(=O)(=O)O [Compound 101, (2S,5R)-2-(isoxazol-3-yl)-7-oxo-1,6-diazabicyclo[3.2.1]octan-6-yl hydrogen sulfate]	as active or more active than Avibactam			as active as Avibactam	as active as Avibactam
CNc1nnc([C@@H]2CC[C@@H]3CN2C(=O)N3OS(=O)(=O)O)o1 [Compound 203, (2S,5R)-2-(5-(methylamino)-1,3,4-oxadiazol-2-yl)-7-oxo-1,6-diazabicyclo[3.2.1]octan-6-yl hydrogen sulfate]	as active or more active than Avibactam				
CN1CCC(c2nnc([C@@H]3CC[C@@H]4CN3C(=O)N4OS(=O)(=O)O)o2)CC1 [Compound 204, (2S,5R)-2-(5-(1-methylpiperidin-4-yl)-1,3,4-oxadiazol-2-yl)-7-oxo-1,6-diazabicyclo[3.2.1]octan-6-yl hydrogen sulfate]	as active or more active than Avibactam	more active than Avibactam		as active as Avibactam	
O=C1N2C[C@@H](CC[C@H]2c2nncs2)N1OS(=O)(=O)O [Compound 300, (2S,5R)-7-oxo-2-(1,3,4-thiadiazol-2-yl)-1,6-diazabicyclo[3.2.1]octan-6-yl hydrogen sulfate]	as active or more active than Avibactam	more active than Avibactam	as active as Avibactam	as active as Avibactam	as active as Avibactam
NCc1nnc([C@@H]2CC[C@@H]3CN2C(=O)N3OS(=O)(=O)O)s1 [Compound 301, (2S,5R)-2-(5-(aminomethyl)-1,3,4-thiadiazol-2-yl)-7-oxo-1,6-diazabicyclo[3.2.1]octan-6-yl hydrogen sulfate]	as active or more active than Avibactam	more active than Avibactam	as active as Avibactam	as active as Avibactam	
O=C1N2C[C@@H](CC[C@H]2c2nnc(N3CCNCC3)s2)N1OS(=O)(=O)O [Compound 302, (2S,5R)-7-oxo-2-(5-(piperazin-1-yl)-1,3,4-thiadiazol-2-yl)-1,6-diazabicyclo[3.2.1]octan-6-yl hydrogen sulfate]	as active or more active than Avibactam	more active than Avibactam	as active as Avibactam		

Reference: US8969570B2, “Beta-lactamase inhibitors” (priority 2012, dated 2015)
